Source: ChEMBL document CHEMBL1201862, “PubChem BioAssay data set” (2004)
Values joined by “and” are separate entries in the source; they are usually repeats but may differ in a detail not shown here. Equal entries are not always repeated.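 Dose response: 5 concentrations. Exposure: 48 h. Format: 96-well plates. Endpoint: linear interpolation; highest concentration if not reached. GI50 is the concentration that inhibits growth by half.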 Active and inactive are the calls of the source. Cut-off read from the data, not from the text of the source: active = GI50 up to about 1.1 µM and inactive = higher.

Experiments:
Experiment in all cases: inhibition of tumour cell growth, NCI panel, 48 h
A549 = test system: A549
COLO 205 = test system: COLO 205
DLD-1 = test system: DLD-1
EKVX = test system: EKVX
HCT-15 = test system: HCT-15
HT-29 = test system: HT-29
K562 = test system: K562
KM-20L2 = test system: KM-20L2
Malme-3M = test system: Malme-3M
NCI-H460 = test system: NCI-H460
NCI-H522 = test system: NCI-H522
RPMI-8226 = test system: RPMI-8226
SK-MEL-2 = test system: SK-MEL-2
SK-OV-3 = test system: SK-OV-3
SN12C = test system: SN12C
SNB-78 = test system: SNB-78
UACC-257 = test system: UACC-257
MCF7 = test system: MCF7
MDA-MB-435 = test system: MDA-MB-435
NCI/ADR-RES = test system: NCI/ADR-RES

Row | Compound | GI50 (A549) | GI50 (COLO 205) | GI50 (DLD-1) | GI50 (EKVX) | GI50 (HCT-15) | GI50 (HT-29) | GI50 (K562) | GI50 (KM-20L2) | GI50 (Malme-3M) | GI50 (NCI-H460) | GI50 (NCI-H522) | GI50 (RPMI-8226) | GI50 (SK-MEL-2) | GI50 (SK-OV-3) | GI50 (SN12C) | GI50 (SNB-78) | GI50 (UACC-257) | GI50 (MCF7) | GI50 (MDA-MB-435) | GI50 (NCI/ADR-RES)
1 | C#CCN(N=O)C(=O)NC(CCCNC(=O)OCc1ccccc1)C(=O)OCc1ccccc1 (configuration not stated) | > 100 µM (inactive) | 91.2 µM (inactive) | 57.1 µM (inactive) | > 100 µM (inactive) | 76.4 µM | > 100 µM (inactive) | 61.9 µM (inactive) | > 100 µM (inactive) | > 100 µM (inactive) | > 100 µM (inactive) | 13.2 µM (inactive) | 63.2 µM (inactive) | > 100 µM (inactive) | > 100 µM (inactive) | > 100 µM (inactive) | > 100 µM (inactive) | 77.1 µM (inactive) |  |  | 
2 | CSC1CC2C(CC1(C)SC)C2(C)C (configuration not stated) | 32.7 µM (inactive) | 37.3 µM (inactive) | 58.1 µM (inactive) | 30.2 µM (inactive) | 51.3 µM | 38.8 µM (inactive) | 24.3 µM (inactive) |  | 41.8 µM (inactive) | 23.9 µM (inactive) | > 100 µM (inactive) | 24.3 µM (inactive) | 23.2 µM (inactive) | 39.9 µM (inactive) |  | 74.3 µM (inactive) | 29.9 µM (inactive) |  |  | 
3 | CC(=O)O[C@H]1CCC2[C@@H]3CCC4=C(O)c5nocc5C[C@]4(C)C3CC[C@@]21C (some centres not stated) | > 100 µM (inactive) | > 100 µM (inactive) |  | > 100 µM (inactive) | > 100 µM | > 100 µM (inactive) | > 100 µM (inactive) | > 100 µM (inactive) | > 100 µM (inactive) | > 100 µM (inactive) | > 100 µM (inactive) | > 100 µM (inactive) | > 100 µM (inactive) | > 100 µM (inactive) | > 100 µM (inactive) | > 100 µM (inactive) | > 100 µM (inactive) |  |  | 
4 | NC(=O)/C(=N\NC(=O)C[n+]1ccccc1)C1NC(=O)NC1=O (configuration not stated) | > 100 µM (inactive) | 32.7 µM (inactive) | > 100 µM (inactive) | > 100 µM (inactive) | > 100 µM | > 100 µM (inactive) | > 100 µM (inactive) | > 100 µM (inactive) | > 100 µM (inactive) | > 100 µM (inactive) |  | > 100 µM (inactive) | > 100 µM (inactive) | > 100 µM (inactive) | > 100 µM (inactive) | > 100 µM (inactive) | > 100 µM (inactive) |  |  | 
5 | CCCC(=O)c1c(NOC2OC(COC(C)=O)C(OC(C)=O)C(OC(C)=O)C2OC(C)=O)nc(OC)n(C)c1=O (configuration not stated) | > 100 µM (inactive) | > 100 µM (inactive) | > 100 µM (inactive) | > 100 µM (inactive) | > 100 µM | > 100 µM (inactive) | > 100 µM (inactive) | > 100 µM (inactive) |  | > 100 µM (inactive) | > 100 µM (inactive) |  | > 100 µM (inactive) |  | > 100 µM (inactive) | > 100 µM (inactive) |  |  |  | 
6 | Cc1ccc(S(=O)(=O)OCC23CCC(C4CC42)C2CC23)cc1 (configuration not stated) | 80.4 µM (inactive) | 95.9 µM (inactive) | > 100 µM (inactive) |  | > 100 µM | 43.8 µM (inactive) | 52.4 µM (inactive) | > 100 µM (inactive) | 75.5 µM (inactive) | 88.1 µM (inactive) |  | 36.3 µM (inactive) |  | > 100 µM (inactive) | > 100 µM (inactive) |  | 7.01 µM (inactive) |  |  | 
7 | COc1cc(/C=C2\NC(=S)C3Cc4c(OC)c(C)c(OC)c(OC)c4C2N3C)c(OC)c(C)c1OC (configuration not stated) | 50.6 µM (inactive) | 16.5 µM (inactive) | 51.1 µM (inactive) | 36.8 µM (inactive) |  | 61.4 µM (inactive) | 49.4 µM (inactive) | 64 µM (inactive) | 29 µM (inactive) | 14.9 µM (inactive) | 20 µM (inactive) | 25.6 µM (inactive) | 36.2 µM (inactive) | > 100 µM (inactive) | > 100 µM (inactive) |  | 22.2 µM (inactive) |  |  | 
8 | CCN(CC)CC(C)(C)C(=O)/C=C/c1cccc(/C=C/C(=O)C(C)(C)CN(CC)CC)c1 | 1.33 µM (inactive) | 0.247 µM (active) | 0.237 µM (active) | 1.16 µM (inactive) | 0.461 µM | 0.366 µM (active) | 0.431 µM (active) | 1.07 µM (active) | 1.59 µM (inactive) | 0.692 µM (active) |  | 2.06 µM (inactive) |  | 1.45 µM (inactive) | 0.303 µM (active) | 2.21 µM (inactive) | 1.22 µM (inactive) |  |  | 
9 | Cc1cc2c(c(C#N)c1C)NC(=O)CCC2=O | > 100 µM (inactive) | > 100 µM (inactive) | > 100 µM (inactive) | > 100 µM (inactive) | > 100 µM | > 100 µM (inactive) | > 100 µM (inactive) | > 100 µM (inactive) |  | > 100 µM (inactive) |  | > 100 µM (inactive) | > 100 µM (inactive) |  | > 100 µM (inactive) | > 100 µM (inactive) | > 100 µM (inactive) |  |  | 
10 | COc1ccc(-c2cc(-c3ccco3)c(C#N)c(=O)n2C2OC(OC(=O)c3ccccc3)C(OC(=O)c3ccccc3)C2OC(=O)c2ccccc2)cc1 (configuration not stated) |  | > 100 µM (inactive) | > 100 µM (inactive) | > 100 µM (inactive) | > 100 µM | > 100 µM (inactive) | > 100 µM (inactive) | > 100 µM (inactive) | > 100 µM (inactive) | > 100 µM (inactive) | 63.5 µM (inactive) | > 100 µM (inactive) | > 100 µM (inactive) |  | > 100 µM (inactive) | > 100 µM (inactive) | > 100 µM (inactive) |  |  | 
11 | COc1cc2c(cc1OC)[C@H]1C(COC(=O)c3ccccc3)CS/C(=N/c3ccccc3)N1CC2 (some centres not stated) | 82.6 µM (inactive) | > 100 µM (inactive) | > 100 µM (inactive) | > 100 µM (inactive) | > 100 µM | 8.24 µM (inactive) |  | 76 µM (inactive) | > 100 µM (inactive) | 91.8 µM (inactive) | 2.34 µM (inactive) | 4.33 µM (inactive) | 3.21 µM (inactive) | > 100 µM (inactive) | > 100 µM (inactive) | 27 µM (inactive) | > 100 µM (inactive) |  |  | 
12 | COC(=O)C(CCCCCCCC(C(=O)OC)C1=Nc2nnc(N)n2C1=O)C1=Nc2nnc(N)n2C1=O (configuration not stated) | > 100 µM (inactive) | > 100 µM (inactive) | > 100 µM (inactive) | > 100 µM (inactive) | > 100 µM | > 100 µM (inactive) |  | > 100 µM (inactive) | > 100 µM (inactive) | > 100 µM (inactive) | > 100 µM (inactive) | 4.07 µM (inactive) | > 100 µM (inactive) | > 100 µM (inactive) | > 100 µM (inactive) | > 100 µM (inactive) | > 100 µM (inactive) |  |  | 
13 | C[C@@H]1C[C@@H]2C(=O)N(c3ccccc3)C(=O)[C@@H]2c2[nH]c3ccc(Br)cc3c21 | 33.6 µM (inactive) | > 100 µM (inactive) | 44.2 µM (inactive) | 36.9 µM (inactive) | 34.3 µM |  | 49.1 µM (inactive) | > 100 µM (inactive) | 39.4 µM (inactive) | 42.3 µM (inactive) | 24 µM (inactive) |  | 55.3 µM (inactive) | 22.3 µM (inactive) | 41 µM (inactive) | 25.1 µM (inactive) | > 100 µM (inactive) |  |  | 
14 | N#CC(c1ccccc1)c1nc2ccc(N)cc2[n+]([O-])c1C(C#N)c1ccccc1 (configuration not stated) | 57.8 µM (inactive) | 76.4 µM (inactive) | 43.6 µM (inactive) | > 100 µM (inactive) | 46 µM | 58.7 µM (inactive) | 44.5 µM (inactive) | 75.3 µM (inactive) | 99.5 µM (inactive) | 73.3 µM (inactive) | 46.9 µM (inactive) |  | 40.2 µM (inactive) | > 100 µM (inactive) | 79.1 µM (inactive) | > 100 µM (inactive) | > 100 µM (inactive) |  |  | 
15 | C[C@@H]1CC[C@@]2(C)OC(c3ccccc3)[C@H](CO)N2C1=O (some centres not stated) | > 100 µM (inactive) | > 100 µM (inactive) | > 100 µM (inactive) | > 100 µM (inactive) | > 100 µM | > 100 µM (inactive) | > 100 µM (inactive) | > 100 µM (inactive) | > 100 µM (inactive) | > 100 µM (inactive) |  | > 100 µM (inactive) | > 100 µM (inactive) |  | > 100 µM (inactive) | > 100 µM (inactive) | > 100 µM (inactive) |  |  | 
16 | O=c1ncccn1[C@@H]1O[C@H](CO)[C@@H](O)[C@@H]1F | > 100 µM (inactive) | > 100 µM (inactive) |  | > 100 µM (inactive) |  | > 100 µM (inactive) and > 61.9 µM (inactive) |  | > 100 µM (inactive) | > 100 µM (inactive) and > 67.1 µM (inactive) |  | > 100 µM (inactive) | > 100 µM (inactive) | > 100 µM (inactive) | > 100 µM (inactive) | > 100 µM (inactive) | > 100 µM (inactive) | > 100 µM (inactive) |  |  | 
17 | CCOC(=O)C(Cc1cn(S(=O)(=O)c2ccccc2)c2ccccc12)(NC(C)=O)C(=O)OCC | 36.2 µM (inactive) | 25 µM (inactive) | 40.1 µM (inactive) |  | 42.5 µM | 58.5 µM (inactive) | 29 µM (inactive) | 46.6 µM (inactive) | 37.9 µM (inactive) | 32.7 µM (inactive) | 15.3 µM (inactive) | 13.1 µM (inactive) | 30.6 µM (inactive) |  |  |  | 24.5 µM (inactive) |  |  | 
18 | O=C(O)CCCc1ccc(N(CCCl)CCCl)cc1 [CHLORAMBUCIL] | 61.7 µM (inactive) | 115 µM (inactive) | 104 µM (inactive) | 163 µM (inactive) | 92.7 µM | 130 µM (inactive) | 107 µM (inactive) | 132 µM (inactive) | 70.3 µM (inactive) | 14.7 µM (inactive) | 28.4 µM (inactive) | 76 µM (inactive) | 155 µM (inactive) | 110 µM (inactive) | 35.5 µM (inactive) |  | 93.5 µM (inactive) | 32.8 µM (inactive) | 126 µM (inactive) | 56.9 µM (inactive)
